Reference: patent US20100168072A1, “Drug Combinations for the Treatment of Duchenne Muscular Dystrophy” (BIOMARIN IGA LIMITED, priority 2007, published 2010)

System: Utrophin A promoter linked to a luciferase reporter gene (H2K/mdx/Utro A reporter cell line)
Assay: Luciferase reporter assay (murine H2K cells)
Format: cell-based
Settings: Mus musculus; final concentration of 10 μM; incubated for a further 48 hrs
Procedure: The cell line used for the screen is an immortalized mdx mouse H2K cell line that has been stably transfected with a plasmid containing ≈5 kb fragment of the Utrophin A promoter including the first untranslated […] linked to a luciferase reporter gene.
Under conditions of low temperature and interferon containing media, the cells remain as myoblasts. These are plated into 96 well plates and cultured in the presence of compound for three days. The level of luciferase is then determined by cell lysis and reading of the light output from the expressed luciferase gene utilising a plate luminometer.
The H2K/mdx/Utro A reporter cell line was passaged twice a week until ≦30% confluent. The cells were grown at 33° C. in the presence of 10% CO2
To remove the myoblasts for platting, they were incubated with Trypsin/EDTA until the monolayer started to detach.
• DMEM Gibco 41966 • 20% FCS • 1% Pen/Strep • 1% glutamine • 10 mls Chick embryo extract • Interferon(1276 905 Roche) Add fresh 10 μl/50 mls medium
The H2K/mdx/Utro A reporter cell line cells were plated out into 96 well plates (Falcon 353296, white opaque) at a density of approximately 5000 cells/well in 190 μl normal growth medium. The plates were then incubated at 33° C. in the presence of 10% CO2 for 24 hrs.
Compounds were dosed by adding 10 μl of diluted compound to each well giving a final concentration of 10 μM. The plates were then incubated for a further 48 hrs
Cells were then lysed in situ following the manufacture's protocols (Promega Steady-Glo Luciferase Assay System (E2520). Then counted for 10 seconds using a plate luminometer (Victor1420).

SMILES | activity at 10 µM
CCN(CC)c1ccc(-n2nc3ccc(NC(=O)c4ccc(Cl)cc4)cc3n2)cc1 [Example 32, 4-chloro-N-(2-(4-(diethylamino)phenyl)-2H-benzo[d][1,2,3]triazol-5-yl)benzamide] | < 200%
CS(=O)(=O)c1ccc2cn(-c3ccc(Cl)cc3)nc2c1 [Example 44, 2-(4-chlorophenyl)-6-(methylsulfonyl)-2H-indazole] | 201 to 300%
CCS(=O)(=O)c1ccc2nn(-c3ccc(Cl)c(Cl)c3)nc2c1 [Example 51, 2-(3′,4′-dichlorophenyl)-5-(ethylsulfonyl)-benzotriazole] | 301 to 400%
O=[N+]([O-])c1ccc2cn(-c3ccc(Cl)cc3)nc2c1 [Example 45, 2-(4-chlorophenyl)-6-nitro-2H-indazole] | < 200%
COc1ccccc1C(=O)Nc1cc2nn(-c3ccc(Cl)cc3)nc2cc1C [Example 5, N-(2-(4-chlorophenyl)-6-methyl-2H-benzo[d][1,2,3]triazol-5-yl)-2-methoxybenzamide] | < 200%
CCCC(=O)Nc1ccc2nn(-c3ccc(Cl)cc3)nc2c1 [Example 36, N-(2-(4-chlorophenyl)-2H-benzo[d][1,2,3]triazol-5-yl)butyramide] | 301 to 400%
CS(=O)(=O)c1ccc2nn(-c3ccc4ccccc4c3)[n+]([O-])c2c1 [Example 54, 6-(Methylsulfonyl)-2-(naphthalen-2-yl)-2H-benzo[d][1,2,3]triazole 1-oxide] | 201 to 300%
CCN(CC)c1ccc(-n2nc3ccc(NC(C)=O)cc3n2)cc1 [Example 22, N-(2-(4-(diethylamino)phenyl)-2H-benzo[d][1,2,3]triazol-5-yl)acetamide] | 201 to 300%
CS(=O)(=O)c1ccc2nn(-c3ccc(Cl)cc3)[n+]([O-])c2c1 [Example 47, 2-(4-chlorophenyl)-6-(methylsulfonyl)-2H-benzo[d][1,2,3]triazole 1-oxide] | < 200%
CCC(=O)Nc1ccc2nn(-c3ccc(N(CC)CC)cc3)nc2c1 [Example 23, N-(2-(4-(diethylamino)phenyl)-2H-benzo[d][1,2,3]triazol-5-yl)propionamide] | < 200%
Cc1ccc(-n2nc3ccc(N)cc3n2)cc1C [Example 63, 2-(3,4-dimethylphenyl)-2H-benzo[d][1,2,3]triazol-5-amine] | < 200%
CCCC(=O)Nc1ccc2nn(-c3ccc(N(CC)CC)cc3)nc2c1 [Example 24, N-(2-(4-(diethylamino)phenyl)-2H-benzo[d][1,2,3]triazol-5-yl)butyramide] | < 200%
CCOc1ccc(-n2nc3cc(C)c(N)cc3n2)cc1 [Example 64, 2-(4-ethoxyphenyl)-6-methyl-2H-benzo[d][1,2,3]triazol-5-amine] | 201 to 300%
Cc1ccc(-n2nc3cc(C)c(N)cc3n2)cc1 [Example 65, 6-methyl-2-p-tolyl-2H-benzo[d][1,2,3]triazol-5-amine] | 201 to 300%
COc1ccc(-n2nc3cc(C)c(NC(C)=O)cc3n2)cc1 [Example 66, N-(2-(4-methoxyphenyl)-6-methyl-2H-benzo[d][1,2,3]triazol-5-yl)acetamide] | < 200%
CCN(CC)c1ccc(-n2nc3ccc(NC(=O)c4ccc(OC)cc4)cc3n2)cc1 [Example 30, N-(2-(4-(diethylamino)phenyl)-2H-benzo[d][1,2,3]triazol-5-yl)-4-methoxybenzamide] | < 200%
CC(C)C(=O)Nc1ccc2nn(-c3ccc(Cl)c(Cl)c3)nc2c1 [Example 53, N-(2-(3,4-Dichlorophenyl)-2H-benzo[d][1,2,3]triazol-5-yl)isobutyramide] | > 401%
CS(=O)(=O)c1ccc2nn(-c3ccc(Cl)cc3)nc2c1 [Example 49, 2-(4-chlorophenyl)-5-(methylsulfonyl)-2H-benzo[d][1,2,3]triazole] | < 200%
CC(=O)Nc1ccc2nn(-c3ccc(F)cc3)nc2c1 [Example 69, N-(2-(4-fluorophenyl)-2H-benzo[d][1,2,3]triazol-5-yl)acetamide] | 201 to 300%
CCN(CC)c1ccc(-n2nc3ccc(N)cc3n2)cc1 [Example 19, 2-(4-(diethylamino)phenyl)-2H-benzo[d][1,2,3]triazol-5-amine] | 301 to 400%
CCN(CC)c1ccc(-n2nc3ccc(NC(=O)c4cccnc4)cc3n2)cc1 [Example 20, N-(2-(4-(diethylamino)phenyl)-2H-benzo[d][1,2,3]triazol-5-yl)nicotinamide] | 201 to 300%
CS(=O)(=O)c1ccc2nn(-c3ccc4ccccc4c3)nc2c1 [Example 55, 5-(Methylsulfonyl)-2-(naphthalen-2-yl)-2H-benzo[d][1,2,3]triazole] | > 401%

System: Primary cultures of skeletal muscle cells
Assay: Primary cultures of skeletal muscle cells treated with GTE and EGCG (MyHC staining, Western blot)
Format: cell-based, mice
Settings: Western blot, myotube cultures treated for 7 days
Procedure: GTE and EGCG also display unexpected pro myogenic properties. Primary cultures of skeletal muscle cells were established from both normal and dystrophic mice and treated with GTE and EGCG for 1-7 days. […] The amount of myotubes reached similar level with both agents compared to control thereafter. Western-blot analysis was performed on myotube cultures treated for 7 days.

SMILES | expression of desmin | expression of muscle-specific proteins (dystrophin in control cultures, sarcomeric alpha actinin, MyHC) | myogenin expression
O=C(O[C@@H]1Cc2c(O)cc(O)cc2O[C@@H]1c1cc(O)c(O)c(O)c1)c1cc(O)c(O)c(O)c1 [EGCG, epigallocatechin gallate] | down-regulated | promoted the expression | unchanged

Same assay, conditions: within the first 2-4 days of application; normal and dystrophic mice cells

SMILES | rate of formation of myotubes (in situ staining of MyHC)
O=C(O[C@@H]1Cc2c(O)cc(O)cc2O[C@@H]1c1cc(O)c(O)c(O)c1)c1cc(O)c(O)c(O)c1 [EGCG, epigallocatechin gallate] | concentration-dependently stimulated

System: mdx hearts
Assay: not given
Settings: cited from earlier work

SMILES | myocardial contractile performance
CCCc1nn(C)c2c(=O)[nH]c(-c3cc(S(=O)(=O)N4CCN(C)CC4)ccc3OCC)nc12 [sildenafil] | prevents deterioration
